The text below walks through data of EP4177246A1, “FUSED OXAZEPINES AS INHIBITORS OF PEROXIREDOXINS” (Centro Atlántico del Medicamento, SA, priority 2021, dated 2023).

Molecules are shown by their SMILES.

The subject of experiment [1] is HEL 92.1.7. Kind of experiment: MTT cell viability assay, HEL cells. Format: cell-based. The following applies: Homo sapiens, 48 h drug exposure. Put shortly: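 Human erythroleukemia HEL 92.1.7 cells, 1000-5000 cells/well in 10% FBS medium, treated 24 h after seeding with compound (10 to 0,01microM) or 0.05% DMSO for 48 h. MTT (0.3 mg/ml) 2-4h at 37 °C, OD 595 nm; IC50 by non-linear regression of log concentration vs normalized response, 3 replicates.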

Experiment [2] has as its system MDA-MB-231. The experiment can be described thus: MTT cell viability assay, MDA-MB-231 cells. The class given is cell-based, human. The following applies: Homo sapiens, 48 h drug exposure. Put shortly: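 MDA-MB-231 cells seeded in FBS-supplemented medium, treated after 24 h with compound (10 to 0,01 µM; vehicle 0.05% DMSO) for 48 h at 37 °C. MTT (0.3 mg/ml) added for 2-4 h, formazan dissolved in DMSO, OD read at 595 nm. IC50 from non-linear regression of log concentration vs normalized response.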

Experiment [3] concerns PANC-1. Kind of experiment: MTT cell viability assay, PANC-1 cells. The class given is cell-based. The following applies: Homo sapiens, 48 h drug exposure.
For experiment [4], the system named is DU-145. The experiment can be described thus: MTT cell viability assay, DU-145 cells. The following applies: Homo sapiens, 48 h drug exposure. The class given is cell-based.
The target in experiment [5] is T1, PRDX1 (Homo sapiens, UniProt Q06830).
T1 construct: treatment of untreated MDA-MB-231 cell lysates with a resin coupled to compound 24; endogenous in cells; host or cells: MDA-MB-231 (ATCC HTB-26)
T1 sequence (Q06830 1-199): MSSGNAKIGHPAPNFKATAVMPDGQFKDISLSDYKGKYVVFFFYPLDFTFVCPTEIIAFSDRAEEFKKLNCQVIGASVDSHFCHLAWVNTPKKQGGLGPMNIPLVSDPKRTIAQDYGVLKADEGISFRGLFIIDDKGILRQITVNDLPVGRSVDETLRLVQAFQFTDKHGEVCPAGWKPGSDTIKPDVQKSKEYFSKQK
Kind of experiment: Competitive immunoprecipitation / immunoblot for PRDX1 with compound-coupled resin. Format: binding. The following applies: untreated MDA-MB-231 cell lysates; not trapped from lysates pre-treated with unbound compound. The text has this:
As indicated in the brief description of the figures, the treatment of untreated MDA-MB-231 cell lysates with a resin coupled to compound 24 (24-coupled resin) were subjected to immunoprecipitation analysis for PRDX1 [for the methodology to perform immunoprecipitation and western blot analysis of PRDXs see Am J Physiol Heart Circ Physiol. 2008 Jul; 295(1): H425-H433 (ref. 34); and Oncogene. 2013 November 7; 32(45): 5302-5314 (ref. 35)].

Experiment [6] relates to JNK, p38, AKT, ERK1/2, STAT3. Kind of experiment: Immunoblot of phosphorylated MAPKs, STAT3 and Akt in treated TNBC cells. The following applies: MDA-MB-231 5 µM, 1 h, BT-549 1 µM, 3 h. The class given is cell-based, human. How it is done: MDA-MB-231 cells were incubated with compound 24 (5 µM, 1 h), then washed with cold PBS-vanadate (1 mM). The same process was done with BT-549 cells with the exception that the cells were incubated with compound 24 at 1 µM of 3 h. PRDX1 knockdown cells, or compound 24 treated cells, were then lysed with cold RIPA containing protease and phosphatase inhibitors or with a buffer containing 20 mM Tris-HCI, pH = 7, 140 mM NaCl, 50 mM EDTA, 10% glycerol, 1% NP-40, and protease and phosphatase inhibitors. Lysates were centrifuged at 20,000 × g, at 4 °C for 10 min, and supernatants were collected. Protein concentration of lysis extracts was measured by BCA. Electrophoresis sample buffer containing 10% β-mercaptoethanol was added to 60 µg of extracts. In the case of non-reducing electrophoresis, cells were incubated with cold PBS containing 25 mM NEM for 30 min before lysis, and β-mercaptoethanol was omitted in the electrophoresis sample buffer. Samples were separated by sodium dodecyl sulfate - polyacrylamide gel electrophoresis (SDS-PAGE) and transferred onto nitrocellulose or PVDF (polyvinylidene difluoride) membranes. […] Protein bands were visualized with the Immun-Star Western chemiluminescence kit (Bio-rad) using the ChemiDoc XRS System and the image analysis program Quantity One (Bio-Rad). […]

Take `O=C1C2=C(C(=O)c3c(O)ccc(O)c31)N(c1cccnc1)Cc1ccccc1O2` [Compound 24, 7,10-dihydroxy-12-(pyridin-3-yl)-12,13-dihydrobenzo[f]naphtho[2,3-b][1,4]oxazepine-6,11-dione]: the IC50 in experiment [1] came out at 0.09 µM; in experiment [2] it was 0.09 µM; in experiment [3] it was 0.32 µM; in experiment [4] it was 3.19 µM. Further, in experiment [5], the “trapping of PRDX1 by compound-coupled resin” value is “PRDX1 was clearly trapped by the 24-coupled resin”. Besides, the “activation of STAT3” value in experiment [6] is “a decrease in the activation of STAT3”. Also, in experiment [6], the “levels of activated JNK, p38, AKT and ERK1/2” value is “an increase in the levels of activated JNK, p38, AKT and ERK1/2”.
